Laboratory results from patent US20080255111A1, “Tissue Factor Production Inhibitor” (SANKYO COMPANY LIMITED, priority 2004, published 2008).

What follows are compounds tested on tissue factor mRNA in LPS-stimulated mouse peritoneal macrophages (assay: Assay of mouse peritoneal macrophage tissue factor mRNA). Details: test compound 1 μM, 18 h, then LPS 100 ng/ml for 6 h, relative to cyclophilin mRNA, DMSO treatment = 100, read-out: Expressed Amount of Tissue Factor mRNA.
Type: cell-based
Description: 3 ml of thioglycolate (Sigma Chemical) were administered into the abdominal cavity of male C57BL/6J mice (Charles River) followed 4 days later by intraperitoneal administration of 10 ml of phosphate-buffered saline (hereinafter PBS) containing heparin (Hishiyama Pharmaceutical) at a concentration of 5 U/ml and recovery of intraperitoneal macrophages using a syringe. After centrifuging the recovered macrophages at 1000 rpm and 4° C. for 5 minutes, the supernatant was discarded followed by suspending in RPMI 1640 medium (Gibco Laboratories) containing normal fetal bovine serum (hereinafter FBS) at a concentration of 10%. The macrophages were adjusted to a concentration of 4×10^6 cells/ml, disseminated in 1 ml aliquots in a 12-well plate, and cultured for 3 hours at 37° C. using a CO2 incubator. Subsequently, the cells were washed with PBS, and the medium was replaced with RPMI medium containing lipoprotein-deficient serum (hereinafter LPDS) (Sigma Chemical) at a concentration of 5%. Test compounds dissolved in dimethylsulfoxide (DMSO) at a concentration of 1 μM were added to make a final DMSO concentration of 0.1%, and after warming for 18 hours at 37° C., lipopolysaccharide (hereinafter LPS) (Sigma Chemical) was added to make a concentration of 100 ng/ml. The cells were recovered 6 hours later, RNA was extracted using the Rneasy Mini Kit (Qiagen), and after carrying out a reverse transcription reaction using the First-Strand cDNA Synthesis Kit (Amersham Biosciences), the expressed amounts of tissue factor mRNA and cyclophylin mRNA were measured by quantitative RT-PCR (TaqMan, Applied Biosystems 7700 Sequence Detector).
Quantitative RT-PCR for tissue factor was carried out using the aforementioned TF-1 and TF-2 as primers and TF-P as probes, while quantitative PCR for cyclophilin was carried out using the aforementioned Cyl-1 and Cyl-2 as primers and Cyl-P as probes. Both were carried out by warming for 2 minutes at 50° C. and then for 10 minutes at 95° C., followed by 40 warming cycles consisting of warming for 15 seconds at 95° C. and then for 1 minute at 60° C. The expressed amount of tissue factor mRNA was calculated as a relative value of the expressed amount of cyclophilin mRNA. The expressed amounts of tissue factor mRNA resulting from the test compounds at a concentration of 1 μM or 10 μM based on a value of 100 for the expressed amount of tissue factor mRNA in a case of treatment with DMSO at a concentration of […] are shown in Table 7.

SMILES | mrna remaining at 1 µM
O=C(O)Cc1cccc(OCCCN(Cc2cccc(C(F)(F)F)c2Cl)CC(c2ccccc2)c2ccccc2)c1 [Compound C, 2-(3-{3-[[2-Chloro-3-(trifluoromethyl)benzyl](2,2-diphenylethyl)amino]propoxy}-phenyl)acetic acid, reference compound] | 68.8%
COc1cc2nc(Cc3ccccc3)n(-c3ccc(C(O)(C(F)(F)F)C(F)(F)F)cc3)c(=O)c2cc1OC [Compound D, 2-Benzyl-6,7-dimethoxy-3-[4-[2,2,2-trifluoro-1-hydroxy-1-(trifluoromethyl)ethyl]phenyl]-4(3H)-quinazolinone] | 39%
CC(C)(C)OC(=O)c1c(COc2ccc(-c3ccc(CC(=O)O)s3)cc2)ccc(C(F)(F)F)c1O [Reference Example 21, [5-(4-{[2-(tert-Butoxycarbonyl)-3-hydroxy-4-(trifluoromethyl)benzyl]oxy}phenyl)-2-thienyl]acetic acid] | 68.9%
CC(C)(C)OC(=O)c1c(COc2ccc(-c3ccc(CC(=O)O)cc3[N+](=O)[O-])cc2)ccc(C(F)(F)F)c1O [Reference Example 22, (4′-{[2-(tert-Butoxycarbonyl)-3-hydroxy-4-(trifluoromethyl)benzyl]oxy}-2-nitro-1,1′-biphenyl-4-yl)acetic acid] | 54%
CC(C)(C)OC(=O)c1c(COc2ccc(-c3ccc(CC(=O)O)c(F)c3)cc2)ccc(C(F)(F)F)c1O [Reference Example 23, (4′-{[2-(tert-Butoxycarbonyl)-3-hydroxy-4-(trifluoromethyl)benzyl]oxy}-3-fluoro-1,1′-biphenyl-4-yl)acetic acid] | 51.6%
Cc1cc(CC(=O)O)ccc1-c1ccc(OCc2ccc(C(F)(F)F)c(O)c2C(=O)OC(C)(C)C)cc1 [Reference Example 24, (4′-{[2-(tert-Butoxycarbonyl)-3-hydroxy-4-(trifluoromethyl)benzyl]oxy}-2-methyl-1,1′-biphenyl-4-yl)acetic acid] | 61.8%
COc1cc(CC(=O)O)ccc1-c1ccc(OCc2ccc(C(F)(F)F)c(O)c2C(=O)OC(C)(C)C)cc1 [Reference Example 25, (4′-{[2-(tert-Butoxycarbonyl)-3-hydroxy-4-(trifluoromethyl)benzyl]oxy}-2-methoxy-1,1′-biphenyl-4-yl)acetic acid] | 64%
CC(C)(C)OC(=O)c1c(COc2ccc(-c3ccc(CC(=O)O)cc3Cl)cc2)ccc(C(F)(F)F)c1O [Reference Example 26, (4′-{[2-(tert-Butoxycarbonyl)-3-hydroxy-4-(trifluoromethyl)benzyl]oxy}-2-chloro-1,1′-biphenyl-4-yl)acetic acid] | 42.3%
CC(C)(C)OC(=O)c1c(COc2ccc(-c3ccc(CC(=O)O)cc3C(F)(F)F)cc2)ccc(C(F)(F)F)c1O [Reference Example 27, (4′-{[2-(tert-Butoxycarbonyl)-3-hydroxy-4-(trifluoromethyl)benzyl]oxy}-2-trifluoromethyl-1,1′-biphenyl-4-yl)acetic acid] | 63.5%
CC(C)(C)OC(=O)c1c(COc2ccc(-c3ccc(CC(=O)O)cc3N)cc2)ccc(C(F)(F)F)c1O [Reference Example 30, (2-Amino-4′-{[2-(tert-butoxycarbonyl)-3-hydroxy-4-(trifluoromethyl)benzyl]oxy}-1,1′-biphenyl-4-yl)acetic acid] | 65.6%

Same assay, conditions: test compound 10 μM, 18 h, then LPS 100 ng/ml for 6 h, relative to cyclophilin mRNA, DMSO treatment = 100, read-out: Expressed Amount of Tissue Factor mRNA

SMILES | mrna remaining at 10 µM
CC(C)(C)OC(=O)c1c(COc2ccc(-c3ccc(C4(C(=O)O)CC4)cc3)cc2)ccc(C(F)(F)F)c1O [Reference Example 28, 1-(4′-{[2-(tert-Butoxycarbonyl)-3-hydroxy-4-(trifluoromethyl)benzyl]oxy}-1,1′-biphenyl-4-yl)cyclopropanecarboxylic acid] | 41.7%
CC(C)(C)OC(=O)c1c(COc2ccc(-c3cccc(S(C)(=O)=O)c3)cc2)ccc(C(F)(F)F)c1O [Reference Example 29, tert-Butyl 2-hydroxy-6-({[3′-(methylsulfonyl)-1,1′-biphenyl-4-yl]oxy}methyl)-3-(trifluoromethyl)benzoate] | 88.4%
CN(C)c1cc(CC(=O)O)ccc1-c1ccc(OCc2ccc(C(F)(F)F)c(O)c2C(=O)OC(C)(C)C)cc1 [Reference Example 31, [4′-{[2-(tert-Butoxycarbonyl)-3-hydroxy-4-(trifluoromethyl)benzyl]oxy}-2-(dimethylamino)-1,1′-biphenyl-4-yl]acetic acid] | 33.7%
CC(C)(C)OC(=O)c1c(COc2ccc(-c3ccc(C(CO)C(=O)O)cc3)cc2)ccc(C(F)(F)F)c1O (stereo not drawn) [Reference Example 32, 2-(4′-{[2-(tert-Butoxycarbonyl)-3-hydroxy-4-(trifluoromethyl)benzyl]oxy}-1,1′-biphenyl-4-yl)-3-hydroxypropanoic acid] | 48.5%
CC(C)c1cc(CC(=O)O)ccc1-c1ccc(OCc2ccc(C(F)(F)F)c(O)c2C(=O)OC(C)(C)C)cc1 [Reference Example 33, (4′-{[2-(tert-Butoxycarbonyl)-3-hydroxy-4-(trifluoromethyl)benzyl]oxy}-2-isopropyl-1,1′-biphenyl-4-yl)acetic acid] | 37.2%
CC(C)(C)OC(=O)c1c(COc2ccc(-c3ccc(C(=O)O)cc3)cc2)ccc(C(F)(F)F)c1O [Reference Example 34, 4′-{[2-(tert-Butoxycarbonyl)-3-hydroxy-4-(trifluoromethyl)benzyl]oxy}-1,1′-biphenyl-4-carboxylic acid] | 39%

The compounds below were run on tissue factor mRNA in kidneys of LPS-dosed mice (assay: Assay of tissue factor mRNA using LPS-dosed mouse (kidney)). Details: male C57BL/6J mice, 10 mg/kg oral once a day for 7 days; LPS 4 mg/kg i.p., kidneys 6 hours later; PG/Tween only = 100.
Type: in vivo
Description: Test compounds were dissolved in a solution comprising a 4:1 mixture of propylene glycol (Wako Pure Chemical Industries) and Tween 80 (Kao) (hereinafter PG/Tween) followed by oral administration by gavage for 7 days at 10 mg/kg once a day in the evening to male C57BL/6J mice (Charles River). LPS was administered intraperitoneally at 4 mg/kg at 9:00 AM on the day following the 7th day of administration of PG/Tween, after which the animals were laparotomized under ether anesthesia 6 hours later to excise the kidneys. RNA was extracted from the kidneys using Trizol reagent (Invitrogen). After carrying out a reverse transcription reaction on the resulting RNA using the First-Strand cDNA Synthesis Kit, the expressed amounts of tissue factor mRNA and cyclophilin mRNA were measured in the same manner as the aforementioned Test Example 1. The expressed amounts of tissue factor mRNA for the test compounds when administered at a concentration of 10 mg/kg based on a value of 100 for the expressed amount of tissue factor mRNA in a case of administration of PG/Tween only are shown in Table 8.

SMILES | Expressed Amount of Tissue Factor mRNA
O=C(O)Cc1cccc(OCCCN(Cc2cccc(C(F)(F)F)c2Cl)CC(c2ccccc2)c2ccccc2)c1 [Compound C, 2-(3-{3-[[2-Chloro-3-(trifluoromethyl)benzyl](2,2-diphenylethyl)amino]propoxy}-phenyl)acetic acid, reference compound] | 54.1
COc1cc2nc(Cc3ccccc3)n(-c3ccc(C(O)(C(F)(F)F)C(F)(F)F)cc3)c(=O)c2cc1OC [Compound D, 2-Benzyl-6,7-dimethoxy-3-[4-[2,2,2-trifluoro-1-hydroxy-1-(trifluoromethyl)ethyl]phenyl]-4(3H)-quinazolinone] | 63.5
